{
  "source": "patent US20220031596A1",
  "about": "“ANTI-AGING AGENT AND ANTI-AGING METHOD” (priority 2018, published 2022)",
  "type_in_all_cases": "in vivo, human",
  "key": {"[1]": {"system": "thyroid-stimulating hormone concentration in the plasma", "assay": "Evaluation of thyroid-stimulating hormone secretion promoting effect (plasma TSH, 24-week oral ingestion)", "conditions": "for thyroid-stimulating hormone concentration in the plasma, 0 weeks (before ingestion) / thyroid-stimulating hormone concentration in the plasma, 24 weeks (after ingestion) / thyroid-stimulating hormone concentration in the plasma, Change rate (24 weeks - 0 weeks): High Dose Group (200 mg/daily, oral), mean±SD; for thyroid-stimulating hormone concentration in the plasma, 0 weeks (before ingestion): baseline", "procedure": "In order to confirm a change in the thyroid-stimulating hormone quantity before and after ingestion of the nicotinamide mononucleotide, a test was conducted on healthy males and females aged 50 to 70 years.\nAs a sample of Working Example 4, a capsule formulation containing the nicotinamide mononucleotide and starch (200 mg of the nicotinamide mononucleotide in 4 capsules) (manufactured by SHINKOWA PHARMACEUTICAL Co., Ltd.) was used.\n(§1) Each group consisting of five healthy males and females aged 50 to 70 years in an unbiased age group ingested the above capsule formulation once a day by 4 capsules for 24 weeks (total 10 subjects, 200 mg/daily ingestion). In order to conduct appropriate evaluations, those who had been regularly using medical products for chronic diseases, those who had been consuming healthy foods that may affect clinical research, and those who were currently participating in other clinical researches or clinical trials or had participated in other clinical researches or clinical trials within the last three months were excluded from the subject for the evaluation. The capsule formulations were ingested at 10 am (between meals and fasting state) together with water or lukewarm water (oral administration).\nMeasurement of the thyroid-stimulating hormone quantity in the plasma was conducted by requesting the measurement to an external public organization according to a usual method. FIGS. 8a to 8c indicate transitions of the thyroid-stimulating hormone concentration (μU/ml) in the plasma for 24 weeks. FIG. 8a represents the transitions of the whole subjects; FIG. 8b represents the transitions of the male subjects; FIG. 8c represents the transitions of the female subjects. Further, FIGS. 9a to 9c indicate change rates (%) of the blood thyroid-stimulating hormone concentration up to 24 weeks when the nicotinamide mononucleotide was orally administered to the subjects for 24 weeks. FIG. 9a represents the change rates of the whole subjects; FIG. 9b represents the change rates of the male subjects; FIG. 9c represents the change rates of the female subjects. Further, Table 4 indicates the numerical values of the thyroid-stimulating hormone concentration (μU/ml) in the plasma before the ingestion of the nicotinamide mononucleotide (0 weeks) and after the ingestion of the nicotinamide mononucleotide (24 weeks). Note that the numerical values represent mean values±standard deviation."}, "[2]": {"system": "estradiol concentration in the plasma", "assay": "Evaluation of estradiol secretion promoting effect (plasma estradiol, 24-week oral ingestion)", "conditions": "for estradiol concentration in the plasma, 0 weeks (before ingestion) / estradiol concentration in the plasma, 24 weeks (after ingestion) / estradiol concentration in the plasma, Change rate (24 weeks - 0 weeks): Low Dose Group (100 mg/daily, oral), mean±SD; for estradiol concentration in the plasma, 0 weeks (before ingestion): baseline", "procedure": "In order to confirm a change in the estradiol quantity before and after ingestion of the nicotinamide mononucleotide, a test was conducted on healthy males and females aged 50 to 70 years.\nAs a sample of Working Example 7, a capsule formulation containing the nicotinamide mononucleotide and starch (100 mg of the nicotinamide mononucleotide in 4 capsules) (manufactured by SHINKOWA PHARMACEUTICAL Co., Ltd.) was used.\nas §1, with “Each group consisting of five healthy males and females aged 50 to 70 years in an unbiased age group ingested the above capsule formulation once a day by 4 capsules for 24 weeks (total 10 subjects, 200 mg/daily ingestion).” left out\nMeasurement of the estradiol quantity in the plasma was conducted by requesting the measurement to an external public organization according to a usual method. FIGS. 14a to 14c indicate transitions of the estradiol concentration (pg/ml) in the plasma for 24 weeks. FIG. 14a represents the transitions of the whole subjects; FIG. 14b represents the transitions of the male subjects; FIG. 14c represents the transitions of the female subjects. Further, FIGS. 15a to 15c indicate change rates (%) of the blood estradiol concentration up to 24 weeks when the nicotinamide mononucleotide was orally administered to the subjects for 24 weeks. FIG. 15a represents the change rates of the whole subjects; FIG. 15b represents the change rates of the male subjects; FIG. 15c represents the change rates of the female subjects. Further, Table 7 indicates the numerical values of the estradiol concentration (pg/ml) in the plasma before the ingestion of the nicotinamide mononucleotide (0 weeks) and after the ingestion of the nicotinamide mononucleotide (24 weeks). Note that the numerical values represent mean values±standard deviation."}, "[3]": {"system": "adrenocorticotropic hormone concentration in the plasma", "assay": "Evaluation of adrenocorticotropic hormone secretion promoting effect (plasma ACTH, 24-week oral ingestion)", "conditions": "for adrenocorticotropic hormone concentration in the plasma, 0 weeks (before ingestion) / adrenocorticotropic hormone concentration in the plasma, 24 weeks (after ingestion) / adrenocorticotropic hormone concentration in the plasma, Change rate (24 weeks - 0 weeks): High Dose Group (200 mg/daily, oral), mean±SD; for adrenocorticotropic hormone concentration in the plasma, 0 weeks (before ingestion): baseline", "procedure": "In order to confirm a change in the adrenocorticotropic hormone quantity before and after ingestion of the nicotinamide mononucleotide, a test was conducted on healthy males and females aged 50 to 70 years.\nAs a sample of Working Example 10, a capsule formulation containing the nicotinamide mononucleotide and starch (200 mg of the nicotinamide mononucleotide in 4 capsules) (manufactured by SHINKOWA PHARMACEUTICAL Co., Ltd.) was used.\nas §1, with “above high dose” for “above”\nMeasurement of the adrenocorticotropic hormone quantity in the plasma was conducted by requesting the measurement to an external public organization according to a usual method. FIGS. 20a to 20c indicate transitions of the adrenocorticotropic hormone concentration (pg/ml) in the plasma for 24 weeks. FIG. 20a represents the transitions of the whole subjects; FIG. 20b represents the transitions of the male subjects; FIG. 20c represents the transitions of the female subjects. Further, FIGS. 21a to 21c indicate change rates (%) of the blood adrenocorticotropic hormone concentration up to 24 weeks when the nicotinamide mononucleotide was orally administered to the subjects for 24 weeks. FIG. 21a represents the change rates of the whole subjects; FIG. 21b represents the change rates of the male subjects; FIG. 21c represents the change rates of the female subjects. Further, Table 10 indicates the numerical values of the adrenocorticotropic hormone concentration (pg/ml) in the plasma before the ingestion of the nicotinamide mononucleotide (0 weeks) and after the ingestion of the nicotinamide mononucleotide (24 weeks). Note that the numerical values represent mean values±standard deviation."}},
  "data": [
    {"smiles": "NC(=O)c1ccc[n+]([C@@H]2O[C@H](COP(=O)([O-])O)[C@@H](O)[C@H]2O)c1", "note": "[nicotinamide mononucleotide]", "values": [
      {"measurement": "thyroid-stimulating hormone concentration in the plasma, 0 weeks (before ingestion)", "setting": "[1]; Female", "value": "2.56 ± 1.27", "unit": "μU/ml"},
      {"measurement": "thyroid-stimulating hormone concentration in the plasma, 24 weeks (after ingestion)", "setting": "[1]; Female", "value": "2.61 ± 1.15", "unit": "μU/ml"},
      {"measurement": "thyroid-stimulating hormone concentration in the plasma, Change rate (24 weeks - 0 weeks)", "setting": "[1]; Female", "value": "0.05 ± 0.98", "unit": "μU/ml"},
      {"measurement": "thyroid-stimulating hormone concentration in the plasma, 0 weeks (before ingestion)", "setting": "[1]; Male", "value": "2.57 ± 1.65", "unit": "μU/ml"},
      {"measurement": "thyroid-stimulating hormone concentration in the plasma, 24 weeks (after ingestion)", "setting": "[1]; Male", "value": "2.97 ± 1.52", "unit": "μU/ml"},
      {"measurement": "thyroid-stimulating hormone concentration in the plasma, Change rate (24 weeks - 0 weeks)", "setting": "[1]; Male", "value": "0.40 ± 1.38", "unit": "μU/ml"},
      {"measurement": "thyroid-stimulating hormone concentration in the plasma, 0 weeks (before ingestion)", "setting": "[1]; Whole Subjects", "value": "2.57 ± 1.39", "unit": "μU/ml"},
      {"measurement": "thyroid-stimulating hormone concentration in the plasma, 24 weeks (after ingestion)", "setting": "[1]; Whole Subjects", "value": "2.79 ± 1.29", "unit": "μU/ml"},
      {"measurement": "thyroid-stimulating hormone concentration in the plasma, Change rate (24 weeks - 0 weeks)", "setting": "[1]; Whole Subjects", "value": "0.23 ± 1.14", "unit": "μU/ml"},
      {"measurement": "thyroid-stimulating hormone concentrations in the plasma, effect of ingestion (in words)", "setting": "[1]; oral, 200 mg/daily, 24 weeks, FIGS. 8a-8c, 9a-9c", "value": "increased"},
      {"measurement": "estradiol concentration in the plasma, 0 weeks (before ingestion)", "setting": "[2]; Female", "value": "10.0 ± 0.0", "unit": "pg/mL"},
      {"measurement": "estradiol concentration in the plasma, 24 weeks (after ingestion)", "setting": "[2]; Female", "value": "40.8 ± 70.6", "unit": "pg/mL"},
      {"measurement": "estradiol concentration in the plasma, Change rate (24 weeks - 0 weeks)", "setting": "[2]; Female", "value": "30.8 ± 70.6", "unit": "pg/mL"},
      {"measurement": "estradiol concentration in the plasma, 0 weeks (before ingestion)", "setting": "[2]; Male", "value": "24.0 ± 9.4", "unit": "pg/mL"},
      {"measurement": "estradiol concentration in the plasma, 24 weeks (after ingestion)", "setting": "[2]; Male", "value": "24.9 ± 7.7", "unit": "pg/mL"},
      {"measurement": "estradiol concentration in the plasma, Change rate (24 weeks - 0 weeks)", "setting": "[2]; Male", "value": "0.9 ± 5.6", "unit": "pg/mL"},
      {"measurement": "estradiol concentration in the plasma, 0 weeks (before ingestion)", "setting": "[2]; Whole Subjects", "value": "17.0 ± 9.7", "unit": "pg/mL"},
      {"measurement": "estradiol concentration in the plasma, 24 weeks (after ingestion)", "setting": "[2]; Whole Subjects", "value": "32.9 ± 48.1", "unit": "pg/mL"},
      {"measurement": "estradiol concentration in the plasma, Change rate (24 weeks - 0 weeks)", "setting": "[2]; Whole Subjects", "value": "15.9 ± 49.8", "unit": "pg/mL"},
      {"measurement": "estradiol concentrations in the plasma, effect of ingestion (in words)", "setting": "[2]; oral, 100 mg/daily, 24 weeks, FIGS. 14a-14c, 15a-15c", "value": "increased"},
      {"measurement": "adrenocorticotropic hormone concentration in the plasma, 0 weeks (before ingestion)", "setting": "[3]; Female", "value": "17.5 ± 7.0", "unit": "pg/mL"},
      {"measurement": "adrenocorticotropic hormone concentration in the plasma, 24 weeks (after ingestion)", "setting": "[3]; Female", "value": "21.9 ± 14.2", "unit": "pg/mL"},
      {"measurement": "adrenocorticotropic hormone concentration in the plasma, Change rate (24 weeks - 0 weeks)", "setting": "[3]; Female", "value": "4.4 ± 15.3", "unit": "pg/mL"},
      {"measurement": "adrenocorticotropic hormone concentration in the plasma, 0 weeks (before ingestion)", "setting": "[3]; Male", "value": "24.4 ± 10.0", "unit": "pg/mL"},
      {"measurement": "adrenocorticotropic hormone concentration in the plasma, 24 weeks (after ingestion)", "setting": "[3]; Male", "value": "35.7 ± 10.2", "unit": "pg/mL"},
      {"measurement": "adrenocorticotropic hormone concentration in the plasma, Change rate (24 weeks - 0 weeks)", "setting": "[3]; Male", "value": "11.3 ± 4.6", "unit": "pg/mL"},
      {"measurement": "adrenocorticotropic hormone concentration in the plasma, 0 weeks (before ingestion)", "setting": "[3]; Whole Subjects", "value": "20.9 ± 8.9", "unit": "pg/mL"},
      {"measurement": "adrenocorticotropic hormone concentration in the plasma, 24 weeks (after ingestion)", "setting": "[3]; Whole Subjects", "value": "28.8 ± 13.7", "unit": "pg/mL"},
      {"measurement": "adrenocorticotropic hormone concentration in the plasma, Change rate (24 weeks - 0 weeks)", "setting": "[3]; Whole Subjects", "value": "7.8 ± 11.2", "unit": "pg/mL"},
      {"measurement": "adrenocorticotropic hormone concentrations in the plasma, effect of ingestion (in words)", "setting": "[3]; oral, 200 mg/daily, 24 weeks, FIGS. 20a-20c, 21a-21c", "value": "increased"}
    ]}
  ]
}
